According to patent US11318137B2, “Quinazoline compounds as modulators of Ras signaling” (VANDERBILT UNIVERSITY, priority 2017, dated 2022):

How the values were obtained:
[1] = test system: H727 lung cancer cell lines, which contain a G12V K-Ras mutation; test: Inhibition of cancer cell proliferation (CellTiter-Glo, 3 days); assay type: cell-based; conditions: Homo sapiens, NCI-H727, 72 h, H727 cells, 3 days at 37° C., normalized to DMSO control, read-out: Cell proliferation activity (H727 cancer cell line proliferation IC50)
Procedure: C. Inhibition of Cancer Cell Proliferation
Compounds of the present invention were measured for their ability to kill H727 lung cancer cell lines, which contain a G12V K-Ras mutation. Cell proliferation experiments were conducted in 96-well plates. Cells were plated at 1000 cells/well, incubated overnight, followed by treatment with a dose range of compound for 3 days at 37° C. Cell proliferation was assessed using a CellTiter-Glo assay (Promega) according to the manufacturer's protocol. Data were normalized to DMSO control. IC50 values were determined using a four-parameter dose-response (variable slope) equation. These assays are performed in a manner analogous to the assay disclosed in: Burns, M. C.; Sun, Q.; Daniels, R. N.; Camper, D. V.; Kennedy, J. P.; Phan, J.; Olejniczak, E. O.; Lee, T.; Waterson, A. G.; Rossanese, O. W.; Fesik, S. W. “Approach for targeting Ras with small molecules that activate SOS-mediated nucleotide exchange” Proc. Natl. Acad. Sci. 2014; 11(9): 3401-3406. PMCID: PMC3948241.

[2] = target: T1, SOS-mediated nucleotide exchange on Ras (Homo sapiens, UniProt Q07889); test: SOS-mediated nucleotide exchange on Ras (BODIPY-GDP fluorescence); assay type: biochemical; conditions: Ras loaded with BODIPY-GDP, GTP and SOS added; EC50 from derived exchange rates
T1 sequence (Q07889 1-1333): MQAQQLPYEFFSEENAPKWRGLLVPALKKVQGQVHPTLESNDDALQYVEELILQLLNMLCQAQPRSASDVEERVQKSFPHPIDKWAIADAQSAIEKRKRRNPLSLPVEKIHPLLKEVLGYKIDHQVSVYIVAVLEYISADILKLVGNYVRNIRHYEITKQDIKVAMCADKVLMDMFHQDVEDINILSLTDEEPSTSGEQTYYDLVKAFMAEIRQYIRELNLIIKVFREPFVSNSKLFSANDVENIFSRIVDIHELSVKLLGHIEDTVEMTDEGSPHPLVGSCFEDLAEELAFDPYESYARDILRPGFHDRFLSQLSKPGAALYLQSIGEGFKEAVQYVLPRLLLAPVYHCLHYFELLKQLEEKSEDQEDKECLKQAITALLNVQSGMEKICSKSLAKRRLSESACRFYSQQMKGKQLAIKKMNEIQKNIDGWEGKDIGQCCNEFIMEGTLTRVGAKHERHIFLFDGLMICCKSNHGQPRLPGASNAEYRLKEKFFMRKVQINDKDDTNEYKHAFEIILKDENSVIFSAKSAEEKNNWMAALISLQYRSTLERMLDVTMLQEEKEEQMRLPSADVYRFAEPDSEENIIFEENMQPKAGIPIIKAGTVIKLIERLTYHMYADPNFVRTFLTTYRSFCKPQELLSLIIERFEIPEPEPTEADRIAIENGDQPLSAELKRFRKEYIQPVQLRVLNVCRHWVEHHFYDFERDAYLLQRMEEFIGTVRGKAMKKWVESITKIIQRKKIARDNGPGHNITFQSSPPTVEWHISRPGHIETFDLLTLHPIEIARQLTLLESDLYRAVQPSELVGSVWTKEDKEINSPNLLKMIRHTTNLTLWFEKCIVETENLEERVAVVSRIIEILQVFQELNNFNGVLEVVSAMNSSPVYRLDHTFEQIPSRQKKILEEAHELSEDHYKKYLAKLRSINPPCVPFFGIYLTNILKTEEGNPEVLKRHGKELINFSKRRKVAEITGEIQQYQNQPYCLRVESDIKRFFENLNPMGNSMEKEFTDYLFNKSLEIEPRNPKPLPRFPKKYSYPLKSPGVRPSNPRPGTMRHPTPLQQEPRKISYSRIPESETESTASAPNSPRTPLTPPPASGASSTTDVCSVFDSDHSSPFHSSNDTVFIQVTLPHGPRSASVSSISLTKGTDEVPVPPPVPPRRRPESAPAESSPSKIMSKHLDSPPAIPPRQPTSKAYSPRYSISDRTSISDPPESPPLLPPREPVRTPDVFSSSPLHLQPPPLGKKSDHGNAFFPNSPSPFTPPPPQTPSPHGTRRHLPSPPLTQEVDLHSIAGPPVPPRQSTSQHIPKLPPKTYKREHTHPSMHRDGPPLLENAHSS
Summary of the method: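 Compound, then GTP and SOS, were added to buffered Ras preloaded with BODIPY-GDP, and the fluorescence change from labeled GDP being exchanged for GTP was followed over time. Rates came from single-exponential fits, and EC50 from a four-parameter fit of mean rate against compound concentration.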

Son of Sevenless (SOS) = target: T2, Son of Sevenless (SOS) (Homo sapiens, UniProt Q07889); test: Binding to SOS, fluorescence polarization anisotropy (FPA) displacement of FITC-conjugated probe; conditions: binding affinity calculated from IC50 of FITC-probe displacement, read-out: Binding affinities (binding affinity to SOS)
T2 sequence (Q07889 564-1049 limits assumed): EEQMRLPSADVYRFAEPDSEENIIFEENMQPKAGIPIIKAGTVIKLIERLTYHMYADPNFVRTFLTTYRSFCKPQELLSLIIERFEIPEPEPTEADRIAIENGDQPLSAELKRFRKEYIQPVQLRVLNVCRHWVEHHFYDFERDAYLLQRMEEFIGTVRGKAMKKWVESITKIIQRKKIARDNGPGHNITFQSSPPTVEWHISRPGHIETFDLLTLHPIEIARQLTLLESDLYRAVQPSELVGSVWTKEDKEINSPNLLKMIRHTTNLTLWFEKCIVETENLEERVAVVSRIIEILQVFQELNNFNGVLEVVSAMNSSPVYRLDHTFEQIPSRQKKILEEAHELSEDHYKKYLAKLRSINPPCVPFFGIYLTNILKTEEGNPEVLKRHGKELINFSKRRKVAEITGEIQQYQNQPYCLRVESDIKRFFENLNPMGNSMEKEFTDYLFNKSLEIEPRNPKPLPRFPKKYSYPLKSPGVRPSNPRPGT
Summary of the method: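 FITC-labelled probe incubated with SOS in buffer; displacement by test compound across a dose range read as fluorescence anisotropy change. IC50 from four-parameter variable-slope fit, binding affinity calculated from IC50.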

Work on `C[C@@H](Nc1nc(Nc2ccc(F)c(Cl)c2)nc2c(CNC(=N)N)cccc12)C1CC1` [Example 59, (R)-1-((2-((3-chloro-4-fluorophenyl)amino)-4-((1-cyclopropylethyl)amino)quinazolin-8-yl)methyl)guanidine] yielded an IC50 [1] of 5 to 20 µM, an EC50 [2] of 5 to 30 µM and a Ki (Son of Sevenless (SOS)) of over 5 µM.
Compound `CC[C@@H](Nc1nc(Nc2ccc(F)c(Cl)c2)nc2c(N3CCNCC3)cccc12)c1cccs1` [Example 101, (R)—N^2-(3-chloro-4-fluorophenyl)-8-(piperazin-1-yl)-N^4-(1-(thiophen-2-yl)propyl)quinazoline-2,4-diamine] has an IC50 [1] of 1 to 5 µM, an EC50 [2] of 5 to 30 µM and a Ki (Son of Sevenless (SOS)) of over 5 µM.
Compound `C[C@@H](Nc1nc(Nc2ccc(F)c(Cl)c2)nc2c(C(=N)N)cccc12)C1CC1` [Example 57, (R)-2-((3-chloro-4-fluorophenyl)amino)-4-((1-cyclopropylethyl)amino)quinazoline-8-carboximidamide] has an IC50 [1] of 1 to 5 µM, an EC50 [2] of 1 to 5 µM and a Ki (Son of Sevenless (SOS)) of over 5 µM.
Compound `Fc1cc(F)cc(Nc2nc(NCc3ncc[nH]3)c3ccccc3n2)c1` [Example 22, N^4-((1H-imidazol-2-yl)methyl)-N^2-(3,5-difluorophenyl)quinazoline-2,4-diamine] has an IC50 [1] of over 20 µM, an EC50 [2] of over 30 µM and a Ki (Son of Sevenless (SOS)) of over 5 µM.
Work on `CCC(CC)CNc1nc(Nc2ccc(F)c(Cl)c2)nc2c(C3=CCNCC3)cccc12` [Example 98, N^2-(3-chloro-4-fluorophenyl)-N^4-(2-ethylbutyl)-8-(1,2,3,6-tetrahydropyridin-4-yl)quinazoline-2,4-diamine] yielded an IC50 [1] of 1 to 5 µM, an EC50 [2] of 5 to 30 µM and a Ki (Son of Sevenless (SOS)) of 1 to 5 µM.
For `CC[C@@H](Nc1nc(Nc2ccc(F)c(Cl)c2)nc2c(C3=CCNCC3)cccc12)C1CC1` [Example 51, (R)—N^2-(3-chloro-4-fluorophenyl)-N^4-(1-cyclopropylpropyl)-8-(1,2,3,6-tetrahydropyridin-4-yl)quinazoline-2,4-diamine], the IC50 [1] was under 1 µM, the EC50 [2] was 1 to 5 µM and the Ki (Son of Sevenless (SOS)) was under 1 µM.
`CC[C@@H](Nc1nc(Nc2ccc(F)c(Cl)c2)nc2ccccc12)c1cccs1` [Example 39, (R)—N^2-(3-chloro-4-fluorophenyl)-N^4-(1-(thiophen-2-yl)propyl)quinazoline-2,4-diamine] showed an IC50 [1] of 5 to 20 µM, an EC50 [2] of 1 to 5 µM and a Ki (Son of Sevenless (SOS)) of over 5 µM.
